The source of these data is patent US7884195B2, “Method of extracting ginsengnoside Rg2m, pharmaceutical composition including ginsengnoside Rg2, and uses thereof” (priority 2005, dated 2011).

Test [1] relates to Alzheimer Dementia (AD) model rats injected with beta-amyloid (Aβ1-40) and Ibotenic acid (IBA). Nature of the test: Y-shaped electronic maze test of learning-memory ability, beta-amyloid (Aβ1-40) dementia model. It counts as in vivo, rat. Also on record: key: number of stimuli needed for 9-10 successive correct responses. The note with it: nimodipine 0.05 mg·kg^−1 i.v., once a day, 7 days. On the procedure:
(§1) This experiment was carried out employing an Alzheimer Dementia (AD) model. 70 rats were divided into 7 groups consisting of 10 rats each and were anesthetized with chloral hydrate. Except for a placebo group, the remaining 6 groups were rendered dementia models by injecting 4 μg of beta-amyloid (Aβ1-40) and 1 μg of Ibotenic acid (IBA) into the hippocampus CA1 region of each rat. The placebo group was infused with an equal amount of physiological saline, instead of beta-amyloid and Ibotenic acid (IBA).
(§2) The above-mentioned dementia model groups were subdivided into a control group to which physiological saline was administered, four experimental groups to which ginsenoside Rg2 was administered and a comparative group to which a medical dementia therapeutic agent, nimodipine was administered. Each group received the corresponding respective reagents via intravenous injection for 7 days, once a day, according to the dosages set forth in Table 7 below. […]
On day 6 of respective reagent administration, animals were subjected to a Y-shaped electronic maze test. Learning-memory ability of rats was determined according to the following method. […] After 24 hours, the stimulus times necessary for 9 to 10-time successive and exact response of rats were recorded again as the order of memory. […]

The subject of test [2] is hippocampus CA1 nerve cell bodies. Nature of the test: Niss1 staining, loss of nerve cell bodies, Aβ1-40 dementia model. It is filed as in vivo, rat. Conditions: nimodipine 0.05 mg·kg^−1 i.v., once a day, 7 days. The method, then:
as §1
as §2, with “below. Herein, reagents, which are administered to experimental groups, are isomeric C-20(S) ginsenoside Rg2 and C-20(R) ginsenoside Rg2, and mixed-type C-20(SR) ginsenoside Rg2 (in the following Tables, referred to as S, R and SR, respectively).” for “below.”

Test [3] relates to hippocampus nerve cells. Nature of the test: TUNEL staining, in situ cell death (apoptosis), Aβ1-40 dementia model. It is filed as in vivo, rat. The note with it: nimodipine 0.05 mg·kg^−1 i.v., once a day, 7 days. On the procedure: as §1
as §2, with “below. Herein, reagents, which are administered to experimental groups, are isomeric C-20(S) ginsenoside Rg2 and C-20(R) ginsenoside Rg2, and mixed-type C-20(SR) ginsenoside Rg2 (in the following Tables, referred to as S, R and SR, respectively).” for “below.”

For test [4], the system named is Bax. Nature of the test: Expression of Bax in hippocampus, Aβ1-40 dementia model. It is filed as in vivo, rat. The note with it: nimodipine 0.05 mg·kg^−1 i.v., 7 days; 10 rats per group. On the procedure:
as §1
(§3) The above-mentioned dementia model groups were subdivided into a control group to which physiological saline was administered, four experimental groups to which ginsenoside Rg2 was administered and a comparative group to which a medical dementia therapeutic agent, nimodipine was administered. Each group received the corresponding respective reagents via intravenous injection for 7 days, once a day, according to the dosages set forth in Table 7 below. Herein, reagents, which are administered to experimental groups, are isomeric C-20(S) ginsenoside Rg2 and C-20(R) ginsenoside Rg2, and mixed-type C-20(SR) ginsenoside Rg2 (in the following Tables, referred to as S, R and SR, respectively).
(§4) In addition, 24 hours after examination of learning-memory ability, the front and rear of the injected site of the hippocampus CA1 region were successively sliced and subjected to Niss1 staining, HE staining, and chemical examination of immune tissues and in situ cell death, thereby observing morphological changes of hippocampus neuron cell zones, necrosis, degree of cell loss, rate of cell death, and degree of expression of Bax/Bcl-2 and C-fos genes.

In test [5] the test system is Bcl-2. Nature of the test: Expression of Bcl-2 in hippocampus, Aβ1-40 dementia model. It is filed as in vivo, rat. The note with it: nimodipine 0.05 mg·kg^−1 i.v., 7 days; 10 rats per group. On the procedure:
as §1, §3, §4

Test [6] has as its system C-fos. Nature of the test: Expression of C-fos in hippocampus, Aβ1-40 dementia model. It counts as in vivo, rat. Conditions: nimodipine 0.05 mg·kg^−1 i.v., 7 days; 10 rats per group. On the procedure:
as §1, §3, §4

Test [7] has as its system multiple infarct dementia (MID) model rats. Nature of the test: Y-shaped electronic maze test of learning-memory ability, multiple infarct dementia (MID) model. It is filed as in vivo, rat. Also on record: key: stimuli needed for 9-10 successive correct responses (memory: 24 h later). The note with it: nimodipine 0.05 mg·kg^−1 i.v., once a day, 7 days. The method, then: On day 6 of respective reagent administration, animals were subjected to a Y-shaped electronic maze test. Learning-memory ability of rats was determined according to the following method. Firstly, the order of learning is taken as the number of stimulus times necessary for 9 to 10-time successive and exact response of rats. After 24 hours, the stimulus times necessary for 9 to 10-time successive and exact response of rats were recorded again as the order of memory. Based on the recordings thus obtained, a t-test was made between respective groups.
This experiment was carried out employing a multiple infarct dementia (MID) model. 56 rats were divided into 7 groups consisting of 8 rats each and were anesthetized with 10% chloral hydrate. Except for a placebo group, the remaining 6 groups were established as dementia models by injecting 0.13 ml/100 g of a composite thrombosis-inducing agent into the carotid artery of each rat, restoring anatomical structures thereof and suturing skins along layers. The placebo group was injected with an equal amount of physiological saline, instead of the composite thrombosis-inducing agent. […]
On day 6 of respective reagent administration, learning-memory ability of animals was determined according to the same manner as in Experimental Example 1.

Test [8] relates to glutamate (Glu). Nature of the test: Glu-positive neurons in CPU region, MID model. It counts as in vivo, rat. The note with it: nimodipine 0.05 mg·kg^−1 i.v., once a day, 7 days. On the procedure:
(§5) This experiment was carried out employing a multiple infarct dementia (MID) model. 56 rats were divided into 7 groups consisting of 8 rats each and were anesthetized with 10% chloral hydrate. Except for a placebo group, the remaining 6 groups were established as dementia models by injecting 0.13 ml/100 g of a composite thrombosis-inducing agent into the carotid artery of each rat, restoring anatomical structures thereof and suturing skins along layers. The placebo group was injected with an equal amount of physiological saline, instead of the composite thrombosis-inducing agent.
as §3, with “The above” for “The above-mentioned”, “to” for “to the”, “Table 12” for “Table 7”, “following experiments,” for “following Tables,”, “respectively). […]” for “respectively).”

For test [9], the system named is Bax. Nature of the test: Bax-positive neurons in CPU region, MID model. It is filed as in vivo, rat. Conditions: nimodipine 0.05 mg·kg^−1 i.v., once a day, 7 days. The method, then: as §5
as §3, with “The above” for “The above-mentioned”, “to” for “to the”, “Table 12” for “Table 7”, “following experiments,” for “following Tables,”, “respectively). […]” for “respectively).”

The subject of test [10] is Caspase-3. Nature of the test: Caspase-3-positive neurons in CPU region, MID model. It counts as in vivo, rat. Conditions: nimodipine 0.05 mg·kg^−1 i.v., once a day, 7 days. On the procedure: as §5
as §3, with “The above” for “The above-mentioned”, “to” for “to the”, “Table 12” for “Table 7”, “following experiments,” for “following Tables,”, “respectively). […]” for “respectively).”

The subject of test [11] is Calpain II. Nature of the test: Calpain II-positive neurons in CPU region, MID model. It is filed as in vivo, rat. Conditions: nimodipine 0.05 mg·kg^−1 i.v., once a day, 7 days. The method, then:
as §5
as §3, with “The above” for “The above-mentioned”, “to” for “to the”, “Table 12” for “Table 7”, “following experiments,” for “following Tables,”, “respectively). […]” for “respectively).”

For test [12], the system named is PC12 cells. Nature of the test: MTT metabolism after glutamic acid damage of PC12 cells. It is filed as cell-based. The note with it: nimodipine 5 pmol; 1 mmol/L glutamic acid, 20 hours; OD at 490 nm. On the procedure: 100 μl/well of PC12 culture having a cell density of 10^5 cells/mL was inoculated into a 96-well plate and PC12 cells were allowed to adhere to walls of the plate. Wells were divided into 6 groups to which 6 wells were assigned each.
A serum-free medium was added to a non-treatment group, 1 mmol/L of a serum-free medium containing glutamic acid and an equal volume (1 mmol/L) of 20% 1,2-polyethylene glycol were added to a control group, 1 mmol/L of a serum-free medium containing glutamic acid and 0.1 mmol/L of respective structures of ginsenoside Rg2 were added to experimental groups, and 5 pmol of nimodipine, instead of ginsenoside Rg2, was added to a comparative group. Then, PC12 cells of respective groups were cultured at 37° C. for 20 hours.
20 μl/well of MTT (5 g/L) was added to respective groups and cells were continuously cultured at 37° C. for 4 hours. Then, the original medium was aspirated, and 0.1 ml/well of dimethyl sulfoxide (DMSO) was added to dissolve red granules. Next, optical density (OD) at 490 nm was measured using an enzyme-linked immuno-assay and then a t-test was made between groups.

Marks after values point to notes of the source that are not given here.

In the case of `COCCOC(=O)C1=C(C)NC(C)=C(C(=O)OC(C)C)C1c1cccc([N+](=O)[O-])c1` (centres unmarked) [Nimodipine, nimodipine, reference compound], in test [1] (24 hours after learning), the “Order of Memory” value is 4.10 ± 4.80. The “Order of Learning” value in [1] (test on day 6) stood at 8.60 ± 4.58. Further, in test [2], the “Length of nerve cell body loss” value was 259.14 ± 60.36 μm. Also, in test [3], the “Rate of nerve cell death” value amounted to 19.83 ± 2.93. Further, in test [4], the “Expression Intensity of bax, count at grade +” value turned out to be 7; the “Expression Intensity of bax, count at grade ++” value worked out at 3; the “Expression Intensity of bax, count at grade +++” value is 0**; the “Expression Intensity of bax, count at grade −” value is 0. In test [5], the “Expression Intensity of bcl-2, count at grade +” value was 5; the “Expression Intensity of bcl-2, count at grade ++” value was determined as 4; the “Expression Intensity of bcl-2, count at grade +++” value is given as 1**; the “Expression Intensity of bcl-2, count at grade −” value stood at 0. In addition, in test [6], the “Expression Intensity of C-fos, count at grade +” value came to 3; the “Expression Intensity of C-fos, count at grade ++” value was 4; the “Expression Intensity of C-fos, count at grade +++” value is 3*; the “Expression Intensity of C-fos, count at grade −” value was 0. Moreover, in test [7], the “Order of Memory” value was determined as 0.0 ± 0.0. Moreover, in [7] (test on day 6), the “Order of Learning” value is given as 2.5 ± 3.70. In addition, the “Number of Glu-positive cells” value in test [8] was determined as 11.8 ± 3.89. The “Number of Bax-positive cells” value in test [9] is listed as 3.2 ± 2.47. Further, in [10], the “Number of Caspase-3 positive cells” value is recorded as 2.3 ± 2.72. Further, the “Number of Calpain II-positive cells” value in test [11] turned out to be 3.9 ± 0.67. Moreover, in test [12], the “MTT (OD)” value is 0.086 ± 0.017.
